From ChEMBL document CHEMBL1201862, “PubChem BioAssay data set” (2004)
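Cultured in 96-well plates, cells were exposed to test compound for 48 hours across five concentrations. GI50 = concentration required for 50% inhibition of growth.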 Calls of active or inactive are those of the source. No stated cut-off is given here; in the data, active = GI50 up to about 1.1 µM and inactive = higher.

How the values were obtained:
Experiment in all cases: NCI tumour cell line growth inhibition, 48 h
A498 = tested on: A498
CAKI-1 = tested on: CAKI-1
CCRF-CEM = tested on: CCRF-CEM
HT-29 = tested on: HT-29
LOX IMVI = tested on: LOX IMVI
MOLT-4 = tested on: MOLT-4
NCI-H23 = tested on: NCI-H23
NCI-H522 = tested on: NCI-H522
OVCAR-5 = tested on: OVCAR-5
SK-MEL-5 = tested on: SK-MEL-5
SNB-19 = tested on: SNB-19
UACC-257 = tested on: UACC-257
OVCAR-8 = tested on: OVCAR-8
SK-MEL-2 = tested on: SK-MEL-2
HL-60 = tested on: HL-60

Measured: GI50

Nc1nnc(NC(=O)C2=NS(=O)(=O)c3cc(S(N)(=O)=O)c(Cl)cc3N2)[nH]1
inactive: A498 > 100 µM | CAKI-1 > 100 µM | CCRF-CEM > 100 µM | HT-29 > 100 µM | LOX IMVI > 100 µM | MOLT-4 > 100 µM | NCI-H23 > 100 µM | NCI-H522 > 100 µM | OVCAR-5 > 100 µM | SK-MEL-5 > 100 µM | SNB-19 > 100 µM | UACC-257 > 100 µM

O=C(CCc1cc(-c2ccc(F)cc2)n[nH]1)N(Cc1ccccc1)Cc1ccccc1
inactive: A498 > 100 µM | CAKI-1 > 100 µM | CCRF-CEM > 100 µM | HT-29 > 100 µM | LOX IMVI > 100 µM | MOLT-4 > 100 µM | NCI-H23 > 100 µM | NCI-H522 > 100 µM | OVCAR-5 > 100 µM | OVCAR-8 > 100 µM | SK-MEL-2 > 100 µM | SK-MEL-5 > 100 µM | SNB-19 > 100 µM | UACC-257 > 100 µM

COc1cccc(N2C(=O)c3c(c4[nH]c5ccccc5c4c4ccc(C(C)(C)C)cc34)C2=O)c1
inactive: A498 > 100 µM | CAKI-1 > 100 µM | CCRF-CEM > 100 µM | LOX IMVI > 100 µM | MOLT-4 84.7 µM | NCI-H23 > 100 µM | NCI-H522 > 100 µM | OVCAR-5 > 100 µM | OVCAR-8 > 100 µM | SK-MEL-2 > 100 µM | SK-MEL-5 > 100 µM | SNB-19 > 100 µM | UACC-257 > 100 µM

CCN(CC)C(=O)CCn1cc(F)c(=O)[nH]c1=O
inactive: CCRF-CEM > 100 µM | HL-60 > 100 µM | HT-29 > 100 µM | LOX IMVI > 100 µM | MOLT-4 > 100 µM | NCI-H23 > 100 µM | NCI-H522 > 100 µM | OVCAR-5 > 100 µM | OVCAR-8 > 100 µM | SK-MEL-2 > 100 µM | SK-MEL-5 > 100 µM | SNB-19 > 100 µM

OCC(O)C(OC1OC(CO)C(O)C(O)C1O)c1nn(-c2ccccc2)c2nc3cc(Cl)c(Cl)cc3cc12 (centres undefined)
inactive: A498 > 100 µM | CCRF-CEM > 100 µM | HT-29 > 100 µM | LOX IMVI > 100 µM | MOLT-4 > 100 µM | NCI-H23 > 100 µM | NCI-H522 63 µM | OVCAR-5 > 100 µM | OVCAR-8 > 100 µM | SNB-19 > 100 µM | UACC-257 > 100 µM

COC(=O)C(=O)C(C(=O)C(=O)Nc1cc(Cl)c(Cl)cc1Cl)c1nc2ccc([N+](=O)[O-])cc2nc1O (centres undefined)
inactive: CAKI-1 60.8 µM | CCRF-CEM > 100 µM | LOX IMVI > 100 µM | MOLT-4 > 100 µM | NCI-H23 > 100 µM | NCI-H522 46.9 µM | OVCAR-5 > 100 µM | OVCAR-8 > 100 µM | SK-MEL-2 > 100 µM | SK-MEL-5 > 100 µM | SNB-19 > 100 µM | UACC-257 > 100 µM

CCOC(=O)C1=C(C)C2C3C(=O)NC(=O)C3C1(C)C1C(=O)NC(=O)C21 (centres undefined)
inactive: A498 > 100 µM | CCRF-CEM > 100 µM | HL-60 > 100 µM | HT-29 > 100 µM | LOX IMVI > 100 µM | MOLT-4 > 100 µM | NCI-H23 > 100 µM | OVCAR-8 > 100 µM | SK-MEL-2 > 100 µM | SK-MEL-5 > 100 µM | SNB-19 > 100 µM | UACC-257 > 100 µM

NNC(=S)N/N=C/C(=C/Nc1ccccc1)[N+](=O)[O-]
inactive: CAKI-1 > 100 µM | HL-60 > 100 µM | HT-29 > 100 µM | LOX IMVI > 100 µM | NCI-H23 > 100 µM | NCI-H522 > 100 µM | OVCAR-5 > 100 µM | OVCAR-8 > 100 µM | SK-MEL-2 > 100 µM | SNB-19 > 100 µM | UACC-257 > 100 µM

CCCCCCCCCCCCCP(=O)(O)O
inactive: A498 > 100 µM | CCRF-CEM > 100 µM | HL-60 > 100 µM | HT-29 > 100 µM | LOX IMVI > 100 µM | NCI-H23 > 100 µM | NCI-H522 > 100 µM | OVCAR-5 > 100 µM | OVCAR-8 > 100 µM | SK-MEL-2 > 100 µM | SK-MEL-5 > 100 µM | SNB-19 67.1 µM | UACC-257 > 100 µM

N#CC(C(=N/NC(N)=S)/C(=N/NC(N)=S)C(C#N)c1ccc(Cl)cc1)c1ccc(Cl)cc1 (centres undefined)
inactive: A498 > 100 µM | CCRF-CEM 22.6 µM | HT-29 > 100 µM | LOX IMVI > 100 µM | MOLT-4 22.7 µM | NCI-H23 65.5 µM | NCI-H522 > 100 µM | OVCAR-5 > 100 µM | OVCAR-8 53.8 µM | SK-MEL-2 > 100 µM | SK-MEL-5 78.2 µM | SNB-19 > 100 µM | UACC-257 > 100 µM

CCOC(=O)c1cc(=O)n(C)c(=O)n1C
inactive: A498 > 100 µM | CAKI-1 > 100 µM | CCRF-CEM > 100 µM | HT-29 > 100 µM | LOX IMVI > 100 µM | MOLT-4 > 100 µM | NCI-H23 > 100 µM | NCI-H522 > 100 µM | OVCAR-5 > 100 µM | OVCAR-8 > 100 µM | SK-MEL-2 > 100 µM | SK-MEL-5 > 100 µM | SNB-19 > 100 µM | UACC-257 > 100 µM

CC1=N/C(=C\c2ccc(/C=C3/N=C(C)OC3=O)cc2)C(=O)O1
inactive: A498 > 100 µM | CAKI-1 > 100 µM | CCRF-CEM > 100 µM | HT-29 > 100 µM | LOX IMVI > 100 µM | MOLT-4 > 10 µM | NCI-H23 > 100 µM | NCI-H522 > 100 µM | OVCAR-5 > 10 µM | OVCAR-8 > 100 µM | SK-MEL-2 > 100 µM | SK-MEL-5 > 100 µM | SNB-19 > 100 µM | UACC-257 > 100 µM

[N-]=[N+]=Nc1cc(=O)n(-c2ccccc2)c2ccccc12
inactive: CAKI-1 > 100 µM | CCRF-CEM > 100 µM | HL-60 > 100 µM | HT-29 > 100 µM | LOX IMVI > 100 µM | MOLT-4 > 100 µM | NCI-H23 > 100 µM | NCI-H522 > 100 µM | OVCAR-5 > 100 µM | OVCAR-8 > 100 µM | SK-MEL-2 > 100 µM | SK-MEL-5 > 100 µM | UACC-257 > 100 µM

N#Cc1ccccc1NC(=O)/C(=N\N)C(C(=O)c1ccncc1)C1OC(=O)c2ccccc21 (centres undefined)
inactive: CCRF-CEM > 100 µM | HL-60 > 100 µM | HT-29 > 100 µM | LOX IMVI > 100 µM | MOLT-4 > 100 µM | NCI-H23 > 100 µM | NCI-H522 > 100 µM | OVCAR-5 > 100 µM | OVCAR-8 > 100 µM | SK-MEL-2 > 100 µM | SK-MEL-5 > 100 µM | SNB-19 > 100 µM | UACC-257 > 100 µM

COc1ccc(/C(=C\c2cc(OC)c(OC)c(OC)c2)C(=O)O)cc1
inactive: A498 15.9 µM | CAKI-1 30.4 µM | CCRF-CEM 32.5 µM | HL-60 21.3 µM | HT-29 35.6 µM | LOX IMVI 27.5 µM | MOLT-4 27.5 µM | NCI-H522 21 µM | OVCAR-8 33.5 µM | SK-MEL-5 16 µM | SNB-19 54.2 µM | UACC-257 61 µM
